# Experiments:
# [1] = test system: F. nucleatum (Fn) biofilm; experiment: Fn biofilm formation induced by Fn AI-2, fluorescence staining (confocal); format: cell-based, F. nucleatum (ATCC 25586); settings: D-rib or D-gal 200 mM, Fn AI-2 10% (v/v)
# Description: Further, inhibitory effects of individual QSI candidates on Fn biofilm formation induced by Fn AI-2 were examined by fluorescence staining. 2 ml of Fn culture broth (the number of bacteria: 2×10^7/ml) was used, and Fn AI-2 was used in a volume of 10% (v/v) with respect to the total volume of a mixture with Fn culture broth. As the QSI candidates, 200 mM of D-rib or D-gal was used, and 20 μM of the furanone compound was used. Biofilms formed on the cover slip were stained with fluorescent materials using the live/dead-BacLight viability kit (Invitrogen, Grand Island, N.Y., USA) and observed using a confocal microscope (Carl Zeiss, LSM 700). […] Fluorescence intensities of the obtained individual fluorescence images were quantified using ZEN 2010 program of a confocal microscope, and shown in FIG. 3.
# [2] = test system: P. gingivalis (Pg) biofilm; experiment: Pg biofilm formation induced by Fn AI-2, crystal violet staining; format: cell-based, P. gingivalis (ATCC 33277)
# Description: To test biofilm formation by Pg, a test was performed in the same manner as in Example 3. That is, a Pg culture broth (2 ml; negative control group, the number of bacteria: 4×10^8/ml), a mixture of Pg culture broth (2 ml) and Fn AI-2 (10% (v/v) with respect to the total volume of the mixture with Pg culture broth), or a mixture of Pg culture broth (2 ml) and Fn AI-2 (10% (v/v) with respect to the total volume of the mixture with Fn culture broth) and D-gal (2 mM) was added to a 24-well plate with a glass slip (round, 12 mm radius), and cultured under anaerobic conditions for 48˜72 hours. For comparison, 2 μM of the furanone compound [(5Z)-4-bromo-5-(bromomethylene)-2(5H)-furanone] was used instead of D-gal (2 mM) to perform the same test.
# Biofilms formed on the cover slips were stained with 10% crystal violet [Tris(4-(dimethylamino)phenyl)methylium chloride] for 10 minutes, washed three times with PBS, and destained with 1 ml of acetone-alcohol (20:80, vol/vol). The optical density at 590 nm of the destaining solution containing crystal violet was measured using a microplate reader (a Wallac Victor3 microtiter, PerkinElmer Life Sciences, Waltham, Mass.). The smaller optical density (OD590) measured at 590 nm represents more inhibition of biofilm formation, that is, higher quorum sensing inhibitory effect of the used QSI candidate.
# [3] = test system: P. gingivalis (Pg) biofilm; experiment: Pg biofilm formation induced by Fn AI-2, fluorescence staining (confocal); format: cell-based, P. gingivalis (ATCC 33277); settings: D-gal 200 mM vs furanone 20 μM
# Description: Further, inhibitory effects of D-gal on Pg biofilm formation induced by Fn AI-2 were examined by fluorescence staining. 2 ml of Pg culture broth (the number of bacteria: 4×10^8/ml) was used, and Fn AI-2 was used in a volume of 10% (v/v) with respect to the total volume of a mixture with Pg culture broth. 200 mM of D-gal was used, and for comparison, the same test was performed using 20 μM of the furanone compound, instead of D-gal. Biofilms formed on the cover slip were stained with fluorescent materials using the live/dead-BacLight viability kit (Invitrogen, Grand Island, N.Y., USA) and observed using a confocal microscope (Carl Zeiss, LSM 700). […] Fluorescence intensities of the obtained individual fluorescence images were quantified using ZEN 2010 program of a confocal microscope, and shown in FIG. 6.
# Fn AI-2 activity = experiment: AI-2 activity, bioluminescence of reporter strain V. harveyi BB170; format: cell-based, Vibrio harveyi BB170 (ATCC BAA-1117); settings: for Bioluminescence: V. harveyi BB170 + Fn AI-2 10% (v/v), sugar 20 mM, lower = higher inhibition, Fn/AI-2 control 10712312, BB170 alone 856873
# Description: The quorum sensing autoinducer, AI-2 stimulates luciferase operon (lux genes) of V. harveyi to induce luciferase expression, resulting in luminescence. Therefore, inhibition of AI-2 activity was confirmed by measuring bioluminescence by AI-2. Bioluminescence mediated by AI-2 was determined using the AI-2 reporter strain V. harveyi BB170. V. harveyi BB170 was cultured in AB medium overnight at 30° C. until OD600 nm=0.7. The bacteria were washed with fresh AB medium and diluted to a concentration of 10^6 cells/ml. Thereafter, V. harveyi BB170 culture broth (5 ml) was mixed with a partially purified F. nucleatum AI-2(′Fn AI-2′) and D-gal (0 or 20 mM) or D-rib (0 or 20 mM). The partially purified Fn AI-2 was obtained by partially purifying the Fn culture broth using a C18 Sep-Pak reverse-phase column (Waters Co., Milford, Mass.). The Fn culture broth or the partially purified Fn AI-2 was added such that a final concentration of AI-2 in the mixture was 10% (vol/vol). 10% (v/v) of Fn AI-2 corresponds to the Fn bacterial number of 1.9×10^8. Then, culture was performed at 30° C. for 1-8 hours. The bioluminescence was measured using a luminometer (GloMax1—Multi detection System, Promega, Madison, Wis.). BB170 is one of V. harveyi bacteria which have a characteristic of recognizing AI-2 to show bioluminescence. The higher bioluminescence value thus measured represents higher AI-2 activity.
# F. nucleatum = experiment: Effect on bacterial growth of F. nucleatum (OD 600 nm); format: cell-based; settings: D-galactose 100 mM, 37° C., anaerobic, 24-48 hours, vs control 0 mM
# Description: In detail, F. nucleatum was cultured in the presence of 0 mM (control group) and 100 mM of D-galactose at 37° C. under anaerobic conditions for 24-48 hours, and then optical density at 600 nm was determined to measure cell growth.
# S. mutans (Sm) biofilm = experiment: S. mutans biofilm formation, fluorescence staining (confocal); format: cell-based, Streptococcus mutans (ATCC 25175); settings: D-gal 200 mM vs furanone compound 20 μM
# Description: Further, the inhibitory effect of D-gal on Sm biofilm formation was examined by fluorescent staining. 2 ml (2×10^7/ml) of Sm culture broth was used, and 200 mM of D-gal and 20 μM of the furanone compound were used. Biofilms formed on the cover slip were stained with fluorescent materials using the live/dead-BacLight viability kit (Invitrogen, Grand Island, N.Y., USA) and observed using a confocal microscope (Carl Zeiss, LSM 700). […] Fluorescence intensities of the obtained individual fluorescence images were quantified using ZEN 2010 program of a confocal microscope, and shown in FIG. 16.
SMILES,"inhibitory effect on Fn biofilm formation, in words [1]","OD590 nm ([2]; Pg + Fn AI-2 10% (v/v), D-gal 2 mM, 48-72 h, Pg/AI-2 control 2.00, Pg 0.66)","inhibitory effect on Pg biofilm formation, in words ([2]; crystal violet, D-gal 2 mM vs furanone 2 μM)","inhibitory effect on Pg biofilm formation, in words [3]",bioluminescence relative to the bioluminescence upon addition of D-rib (Fn AI-2 activity; D-gal 20 mM vs D-rib 20 mM),Bioluminescence (Fn AI-2 activity),"quorum sensing inhibitory efficacy relative to D-ribose, in words (Fn AI-2 activity; general statement of the specification)","effect on bacterial growth (cell growth curve, OD 600 nm), in words (F. nucleatum)","inhibitory effect on Sm biofilm formation, in words (S. mutans (Sm) biofilm)"
"O=C[C@H](O)[C@@H](O)[C@@H](O)[C@H](O)CO [D-gal, D-galactose]",remarkably excellent inhibitory effect,1.24,equivalent to that of the furanone compound,equivalent to that of the furanone compound,about 20%,1138752,twice higher than that of D-ribose,does not affect bacterial growth,superior to that of the furanone compound
"O=C[C@H](O)[C@H](O)[C@H](O)CO [D-rib, D-ribose, reference compound]",inhibited,–,–,–,–,5481975,–,–,–

# Reference: patent US20190224222A1, “METHOD OF INHIBITING QUORUM SENSING USING D-GALACTOSE” (Seoul National University R&DB Foundation, priority 2014, published 2019)
